Data taken from ChEMBL document CHEMBL1201862, “PubChem BioAssay data set” (2004).
The source made the active and inactive calls. Unless noted, no cut-off for these calls is given here.

Legend:
[1] = CEM21 lymphoblast cell cytotoxicity, dose response, cytotoxicity control for viral fusion inhibitor project, CellTiter-Glo luminescence, cherry-picked (AID 652042); type: functional, cell-based;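 note: potency for signal decrease meaning cytotoxicity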
[2] = target: Protein disulfide-isomerase A6 (Homo sapiens, UniProt Q15084); test: inhibitors of ERp5-mediated insulin aggregation, dose response, biochemical, turbidity, absorbance 650 nm, cherry-picked samples (AID 720566)
[3] = target: Dual specificity tyrosine-phosphorylation-regulated kinase 1A (Rattus norvegicus, UniProt Q63470); type: biochemical, Homo sapiens
[4] = target: Dual specificity protein phosphatase 3 (Homo sapiens, UniProt P51452); test: VHR1 phosphatase inhibitors, primary screen, biochemical, absorbance, uHTS (AID 1654)
[5] = target: T1, Replicative DNA helicase DnaB (Mycobacterium tuberculosis, UniProt P9WMR3); test: DnaB Intein secondary assay Measured in Biochemical System Using Plate Reader - 2047-04_Inhibitor_Dose_DryPowder_Activity. [Related pubchem assays (depositor defined):AID2223]
T1 sequence (P9WMR3 whole entry): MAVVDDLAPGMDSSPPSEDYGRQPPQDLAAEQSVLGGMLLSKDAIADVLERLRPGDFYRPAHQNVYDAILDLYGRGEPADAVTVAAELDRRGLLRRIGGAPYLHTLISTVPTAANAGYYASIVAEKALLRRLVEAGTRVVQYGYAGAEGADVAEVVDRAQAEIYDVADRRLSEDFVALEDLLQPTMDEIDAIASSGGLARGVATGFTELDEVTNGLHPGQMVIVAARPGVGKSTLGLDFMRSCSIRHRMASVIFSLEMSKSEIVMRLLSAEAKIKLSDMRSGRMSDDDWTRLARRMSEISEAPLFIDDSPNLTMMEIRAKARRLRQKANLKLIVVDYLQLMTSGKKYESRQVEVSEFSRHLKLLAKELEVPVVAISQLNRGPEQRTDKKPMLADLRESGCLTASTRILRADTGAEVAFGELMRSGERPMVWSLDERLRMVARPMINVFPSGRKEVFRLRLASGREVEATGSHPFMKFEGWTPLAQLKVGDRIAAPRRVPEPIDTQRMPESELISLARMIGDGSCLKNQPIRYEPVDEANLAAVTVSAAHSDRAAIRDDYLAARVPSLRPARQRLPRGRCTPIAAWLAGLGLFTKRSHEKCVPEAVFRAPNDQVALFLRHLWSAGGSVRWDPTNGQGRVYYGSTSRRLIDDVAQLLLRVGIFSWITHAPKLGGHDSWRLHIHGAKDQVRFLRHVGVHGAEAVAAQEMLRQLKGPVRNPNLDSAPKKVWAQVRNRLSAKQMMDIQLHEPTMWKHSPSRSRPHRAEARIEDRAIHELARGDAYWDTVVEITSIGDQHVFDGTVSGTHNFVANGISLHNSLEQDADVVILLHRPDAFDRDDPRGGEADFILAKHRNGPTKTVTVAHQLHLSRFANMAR

[6] = target: T2, DNA repair and recombination protein RAD54-like (Homo sapiens, UniProt Q92698); test: inhibitors of human RAD54 branch migration, confirmation, biochemical, fluorescence, cherry-picked samples, dose series (AID 651657); type: functional
T2 sequence (Q92698 whole entry): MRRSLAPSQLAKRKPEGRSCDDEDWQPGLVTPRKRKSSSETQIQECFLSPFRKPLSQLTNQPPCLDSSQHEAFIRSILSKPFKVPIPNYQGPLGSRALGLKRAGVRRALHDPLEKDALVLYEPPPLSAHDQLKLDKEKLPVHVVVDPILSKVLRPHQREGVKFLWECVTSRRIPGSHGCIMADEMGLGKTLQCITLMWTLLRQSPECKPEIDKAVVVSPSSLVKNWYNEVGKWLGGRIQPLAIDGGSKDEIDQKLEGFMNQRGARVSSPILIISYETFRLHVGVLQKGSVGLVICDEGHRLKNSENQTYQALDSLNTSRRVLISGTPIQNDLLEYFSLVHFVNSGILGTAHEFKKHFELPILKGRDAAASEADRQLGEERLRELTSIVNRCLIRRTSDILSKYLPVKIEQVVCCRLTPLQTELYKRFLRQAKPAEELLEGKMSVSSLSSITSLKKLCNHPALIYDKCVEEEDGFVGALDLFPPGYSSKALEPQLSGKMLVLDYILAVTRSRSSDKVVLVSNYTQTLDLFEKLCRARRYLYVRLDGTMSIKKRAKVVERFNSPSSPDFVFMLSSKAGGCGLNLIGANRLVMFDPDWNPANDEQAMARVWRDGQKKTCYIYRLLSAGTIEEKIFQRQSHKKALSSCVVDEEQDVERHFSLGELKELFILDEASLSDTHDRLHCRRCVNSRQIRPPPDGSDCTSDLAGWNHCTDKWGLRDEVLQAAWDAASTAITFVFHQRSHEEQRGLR

Protein RecA [7] = target: T3, Protein RecA (Mycobacterium tuberculosis, UniProt P9WHJ3); test: GFP-RecA MOA-DTT Measured in Biochemical System Using Plate Reader - 2047-05_Inhibitor_Dose_DryPowder_Activity. [Related pubchem assays (depositor defined):AID2223]; design: species or system Mycobacterium tuberculosis H37Rv
T3 sequence (P9WHJ3 whole entry): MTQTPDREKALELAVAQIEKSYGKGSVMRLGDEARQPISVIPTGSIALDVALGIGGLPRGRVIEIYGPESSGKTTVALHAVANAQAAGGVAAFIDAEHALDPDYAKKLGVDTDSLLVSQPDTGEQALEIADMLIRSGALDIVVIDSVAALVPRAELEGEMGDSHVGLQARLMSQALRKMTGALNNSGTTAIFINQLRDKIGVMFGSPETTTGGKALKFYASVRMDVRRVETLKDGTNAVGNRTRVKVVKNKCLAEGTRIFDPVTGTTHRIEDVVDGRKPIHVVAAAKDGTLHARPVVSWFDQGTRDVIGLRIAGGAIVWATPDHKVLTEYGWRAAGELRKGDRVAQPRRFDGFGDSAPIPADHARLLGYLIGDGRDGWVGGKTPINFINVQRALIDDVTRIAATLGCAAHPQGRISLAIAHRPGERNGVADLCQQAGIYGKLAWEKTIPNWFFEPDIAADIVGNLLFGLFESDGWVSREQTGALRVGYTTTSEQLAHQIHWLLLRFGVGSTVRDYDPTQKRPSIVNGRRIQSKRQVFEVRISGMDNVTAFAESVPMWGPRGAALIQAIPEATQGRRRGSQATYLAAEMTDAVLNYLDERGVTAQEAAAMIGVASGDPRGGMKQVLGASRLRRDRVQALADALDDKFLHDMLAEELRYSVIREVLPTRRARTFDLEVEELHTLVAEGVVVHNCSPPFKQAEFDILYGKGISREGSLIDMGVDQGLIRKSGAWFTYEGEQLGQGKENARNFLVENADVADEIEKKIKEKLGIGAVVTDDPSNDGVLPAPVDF

Protein RecA [8] = target: T3, Protein RecA; test: RecA Intein Measured in Biochemical System Using Plate Reader - 2047-02_Inhibitor_Dose_DryPowder_Activity. [Related pubchem assays (depositor defined):AID2223]; design: species or system Mycobacterium tuberculosis H37Rv
[9] = target: Small ubiquitin-related modifier 2 (Homo sapiens, UniProt P61956); test: SUMO2–SIM peptide binding inhibitors, dose response, selectivity assay for SUMO1 interaction inhibitor project, biochemical, fluorescence polarization, uHTS hits (AID 624385); type: functional; settings: read-out: IC50_Mean
Sequence of Small ubiquitin-related modifier 2 (P61956 whole entry): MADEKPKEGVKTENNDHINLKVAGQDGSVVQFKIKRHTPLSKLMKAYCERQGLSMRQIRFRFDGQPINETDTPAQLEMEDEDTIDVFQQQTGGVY

Sequence of Dual specificity protein phosphatase 3 (P51452 whole entry): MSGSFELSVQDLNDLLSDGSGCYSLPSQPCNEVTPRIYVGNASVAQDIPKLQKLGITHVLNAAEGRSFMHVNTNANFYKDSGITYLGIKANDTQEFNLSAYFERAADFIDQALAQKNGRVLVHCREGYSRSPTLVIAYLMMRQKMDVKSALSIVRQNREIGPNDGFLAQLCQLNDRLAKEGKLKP
Sequence of Protein disulfide-isomerase A6 (Q15084 whole entry): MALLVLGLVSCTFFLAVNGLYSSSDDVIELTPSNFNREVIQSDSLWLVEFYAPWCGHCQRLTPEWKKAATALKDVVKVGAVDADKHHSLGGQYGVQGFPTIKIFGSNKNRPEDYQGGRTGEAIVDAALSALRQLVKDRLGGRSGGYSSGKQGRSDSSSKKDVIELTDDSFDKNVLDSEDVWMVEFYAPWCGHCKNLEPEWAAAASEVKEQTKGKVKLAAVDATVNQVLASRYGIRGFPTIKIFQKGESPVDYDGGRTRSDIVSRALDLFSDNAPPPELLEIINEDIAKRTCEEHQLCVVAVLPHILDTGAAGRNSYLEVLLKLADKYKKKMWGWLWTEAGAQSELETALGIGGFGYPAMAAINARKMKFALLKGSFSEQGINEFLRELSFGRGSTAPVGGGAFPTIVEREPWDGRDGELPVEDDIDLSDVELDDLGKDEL

CCCCCCCCCCn1c2c(c(=N)c3c1CCC3)CCC2
AC50 [1]: 3400 nM (active)

Cn1nc(-c2ccccn2)nc2c(=O)n(C)c(=O)nc1-2
AC50 [2]: 1490 nM (active) | AC50 [3]: 284 nM (active) | IC50 [4]: < 1230 nM (inactive) | AC50 [5]: 503 nM (active) | AC50 [6]: 1220 nM (active) | AC50 (Protein RecA [7]): 143 nM (active) | AC50 (Protein RecA [8]): 47 nM (active)

COc1ccc(NS(=O)(=O)c2ccc3c(c2)[C@H]2C=CC[C@H]2[C@@H](c2ccc(C(=O)O)cc2)N3)cc1
IC50 [9]: 4060 nM (active)
